In patent publication US10787444B2, “Compounds for the modulation of myc activity” (Syros Pharmaceuticals, Inc., priority 2015, dated 2020):
Read-outs that look alike come from different tables or passages of the source.

What was measured:
c-Myc/Max/Ebox DNA = molecular target: T1, c-Myc/Max/Ebox DNA (Homo sapiens, UniProt P01106); assay: c-Myc/Max/Ebox DNA AlphaScreen Assay; type: binding; conditions: calculated IC50 class
T1 construct: his6 (cleaved yes)
Outline: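 Compounds were preincubated with free c-Myc (20 nM), biotinylated single-Ebox DNA (10 nM) and Ni acceptor beads before his6-Max (5 nM) and streptavidin donor beads were added. Buffer was 50 mM HEPES pH 8.0, 150 mM NaCl, BSA, Tween20, glycogen and DTT, with DMSO ≤2%. After 2 h incubation, AlphaScreen signal was read at 680 nm excitation and 520–620 nm emission.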

[1] = tested on: human small lung cancer cell line H2171; assay: Cell Viability Assay (ATPlite); type: cell-based; conditions: read-out: H2171 Activity
Outline: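 H2171 cells were plated at 20,000 cells/mL and dosed immediately by pin transfer with a 10-point dose series in DMSO. After three days at 37° C, ATPlite luminescence served as the viability readout.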

[2] = Homo sapiens, NCI-H2171, 72 h, Table 2, compounds of FIG. 1, H2171 cells, three days, ATPlite, calculated IC50 class
[3] = Table 2, compounds of FIG. 1, H2171 cells, three days, ATPlite, calculated IC50 class
[4] = Homo sapiens, NCI-H2171, 72 h, Table 3, compounds of FIG. 2, H2171 cells, three days, ATPlite, calculated IC50 class

T1 sequence (P01106 whole entry): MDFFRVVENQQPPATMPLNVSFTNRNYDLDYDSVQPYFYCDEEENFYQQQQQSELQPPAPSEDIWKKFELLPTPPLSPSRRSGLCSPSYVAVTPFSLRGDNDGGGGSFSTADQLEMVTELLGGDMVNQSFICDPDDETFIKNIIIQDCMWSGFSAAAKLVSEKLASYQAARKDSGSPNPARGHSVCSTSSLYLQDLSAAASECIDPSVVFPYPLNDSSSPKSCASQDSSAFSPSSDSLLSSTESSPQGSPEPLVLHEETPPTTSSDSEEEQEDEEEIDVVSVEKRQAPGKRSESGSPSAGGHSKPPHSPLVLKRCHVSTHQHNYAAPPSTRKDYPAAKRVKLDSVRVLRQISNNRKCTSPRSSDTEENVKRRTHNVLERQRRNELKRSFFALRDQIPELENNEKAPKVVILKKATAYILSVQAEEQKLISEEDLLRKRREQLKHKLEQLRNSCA

| Molecule | IC50 (c-Myc/Max/Ebox DNA; Table 2, compounds of FIG. 1) | IC50 [1, 2] | further results |
| --- | --- | --- | --- |
| COCCNCCC(=O)Nc1sc2c(c1-c1nc3cc(-c4ccncc4)ccc3s1)C[C@H](C)N[C@@H]2C [Compound 532, N-((5S,7R)-5,7-dimethyl-3-(5-(pyridin-4-yl)benzo[d]thiazol-2-yl)-4,5,6,7-tetrahydrothieno[2,3-c]pyridin-2-yl)-3-((2-methoxyethyl)amino)propanamide] | > 10000 nM | 300 to 1000 nM | – |
| COCCNCCC(=O)Nc1sc2c(c1-c1nc3cc(-c4ccncc4)ccc3s1)CCNC2C (single isomer, unassigned) [Compound 548, 3-((2-Methoxyethyl)amino)-N-(7-methyl-3-(5-(pyridin-4-yl)benzo[d]thiazol-2-yl)-4,5,6,7-tetrahydrothieno[2,3-c]pyridin-2-yl)propanamide] | < 300 nM | – | IC50 [1, 3]: < 300 nM |
| COCCNCCC(=O)Nc1sc2c(c1-c1nc3ccc(-c4ccc(O)nc4)cc3s1)CCNC2 [compound 374] | < 300 nM | < 300 nM | – |
| COCCNCCC(=O)Nc1sc2c(c1-c1nc3cc(F)ccc3s1)CCNC2 [Compound 189, N-(3-(5-fluorobenzo[d]thiazol-2-yl)-4,5,6,7-tetrahydrothieno[2,3-c]pyridin-2-yl)-3-((2-methoxyethyl)amino)propanamide] | < 300 nM | < 300 nM | – |
| COCCNCCC(=O)Nc1sc2c(c1-c1nc3cc(-c4cnn(C)c4)ccc3s1)CCNC2 [compound 184] | < 300 nM | < 300 nM | – |
| CCc1cccc2nc(-c3c(NC(=O)CCNCCOC)sc4c3CCNC4)sc12 [compound 599] | < 300 nM | < 300 nM | – |
| COCCNCCC(=O)Nc1sc2c(c1-c1nc3cc(-c4ccncc4)ccc3s1)CCNC2 [compound 308] | < 300 nM | < 300 nM | – |
| Cc1ncsc1-c1ccc(CNC(=O)[C@@H]2C[C@@H](O)CN2C(=O)[C@@H](NC(=O)CCOCCOCCOCCOCCOCCOCCNCCC(=O)Nc2sc3c(c2-c2nc4ccccc4s2)CCNC3)C(C)(C)C)cc1 [Compound 591, N1-(3-(benzo[d]thiazol-2-yl)-4,5,6,7-tetrahydrothieno[2,3-c]pyridin-2-yl)-N25-((S)-1-((2S,4R)-4-hydroxy-2-((4-(4-methylthiazol-5-yl)benzyl)carbamoyl)pyrrolidin-1-yl)-3,3-dimethyl-1-oxobutan-2-yl)-7,10,13,16,19,22-hexaoxa-4-azapentacosanediamide] | > 10000 nM | < 300 nM | – |
| CC(C)NCCC(=O)Nc1sc2c(c1-c1nc3c(-c4ccncc4)cccc3s1)CCNC2 [compound 535] | < 300 nM | < 300 nM | – |
| CC(=O)Nc1sc2c(c1-c1nc3ccccc3s1)CCC(NC1CCNCC1)C2 (centres unmarked) [Compound 227, N-(3-(benzo[d]thiazol-2-yl)-6-(piperidin-4-ylamino)-4,5,6,7-tetrahydrobenzo[b]thiophen-2-yl)acetamide] | – | – | IC50 (c-Myc/Max/Ebox DNA; Table 3, compounds of FIG. 2): > 10000 nM; IC50 [1, 4]: < 300 nM |
| COCCNCCC(=O)Nc1sc2c(c1-c1nc3cc(-c4ccnc(NC(C)=O)c4)ccc3s1)CCNC2 [compound 342] | < 300 nM | < 300 nM | – |
| COCCNCCC(=O)Nc1sc2c(c1-c1nc3cc(-c4cccnc4)ccc3s1)CC(C)NC2C (centres unmarked) [Compound 533, N-(5,7-Dimethyl-3-(5-(pyridin-3-yl)benzo[d]thiazol-2-yl)-4,5,6,7-tetrahydrothieno[2,3-c]pyridin-2-yl)-3-((2-methoxyethyl)amino)propanamide] | 1000 to 10000 nM | 300 to 1000 nM | – |
| CC(C)NCCC(=O)Nc1sc2c(c1-c1nc3ccc(-c4cccnc4)cc3s1)CCNC2 [compound 193] | < 300 nM | < 300 nM | – |
| CC[C@H](C)NCCC(=O)Nc1sc2c(c1-c1nc3ccccc3s1)CC(C)NC2C (single isomer, unassigned) [Compound 621] | > 10000 nM | – | IC50 [1, 3]: 1000 to 10000 nM |
| CCC(C)NCCC(=O)Nc1sc2c(c1-c1nc3cc(F)ccc3s1)CCNC2 (centres unmarked) [Compound 123, 3-(sec-butylamino)-N-(3-(5-fluorobenzo[d]thiazol-2-yl)-4,5,6,7-tetrahydrothieno[2,3-c]pyridin-2-yl) propanamide] | < 300 nM | < 300 nM | – |
| 3-(Azetidin-1-yl)-N-(3-(benzo[d]thiazol-2-yl)-6-isopropyl-4,5,6,7-tetrahydrothieno[2,3-c]pyridin-2-yl)propanamide [Compound 541] | 300 to 1000 nM | – | IC50 [1, 3]: 1000 to 10000 nM |
| CCCNCCC(=O)Nc1sc2c(c1-c1nc3ccccc3s1)CCN(C(C)C)C2 [Compound 539, N-(3-(Benzo[d]thiazol-2-yl)-6-isopropyl-4,5,6,7-tetrahydrothieno[2,3-c]pyridin-2-yl)-3-(propylamino)propanamide] | 300 to 1000 nM | – | IC50 [1, 3]: 300 to 1000 nM |

| Molecule | IC50 (c-Myc/Max/Ebox DNA; Table 2, compounds of FIG. 1) | IC50 [1, 2] | further results |
| --- | --- | --- | --- |
| COCCNCCC(=O)Nc1sc2c(c1-c1nc3cc(C)ccc3s1)CCNC2 [Compound 314, 3-((2-Methoxyethyl)amino)-N-(3-(5-methylbenzo[d]thiazol-2-yl)-4,5,6,7-tetrahydrothieno[2,3-c]pyridin-2-yl)propanamide] | < 300 nM | < 300 nM | – |
| CCC(=O)NCCC(=O)Nc1sc2c(c1-c1nc3ccccc3s1)CCNC2 [Compound 199, N-(3-(benzo[d]thiazol-2-yl)-4,5,6,7-tetrahydrothieno[2,3-c]pyridin-2-yl)-3-propionamidopropanamide] | 1000 to 10000 nM | 1000 to 10000 nM | – |
| CC[C@@H](C)NCCC(=O)Nc1sc2c(c1-c1nc3ccccc3s1)CCN(C(C)C)C2 [Compound 140, (R)—N-(3-(benzo[d]thiazol-2-yl)-6-isopropyl-4,5,6,7-tetrahydrothieno[2,3-c]pyridin-2-yl)-3-(sec-butylamino)propanamide] | < 300 nM | < 300 nM | – |
| CC[C@H](C)NCCC(=O)Nc1sc2c(c1-c1nc3ccccc3s1)CCNC2 [Compound 154, (S)—N-(3-(benzo[d]thiazol-2-yl)-4,5,6,7-tetrahydrothieno[2,3-c]pyridin-2-yl)-3-(sec-butylamino) propanamide] | 300 to 1000 nM | < 300 nM | – |
| CC(=O)Nc1sc2c(c1-c1nc3cc(F)ccc3s1)CCNC2 [Compound 203, N-(3-(5-fluorobenzo[d]thiazol-2-yl)-4,5,6,7-tetrahydrothieno[2,3-c]pyridin-2-yl)acetamide] | – | – | IC50 (c-Myc/Max/Ebox DNA; Table 3, compounds of FIG. 2): 1000 to 10000 nM; IC50 [1, 4]: 1000 to 10000 nM |
| CC(C)NCCC(=O)Nc1sc2c(c1-c1nc3cc(-c4ccc(S(C)(=O)=O)cc4)ccc3s1)CCNC2 [compound 181] | < 300 nM | < 300 nM | – |
| COCCNCCC(=O)Nc1sc2c(c1-c1nc3cc(-c4cnn(C)c4)ccc3s1)CC(C)NC2C (single isomer, unassigned) [Compound 567, N-(5,7-Dimethyl-3-(5-(1-methyl-1H-pyrazol-4-yl)benzo[d]thiazol-2-yl)-4,5,6,7-tetrahydrothieno[2,3-c]pyridin-2-yl)-3-((2-methoxyethyl)amino)propanamide] | 1000 to 10000 nM | – | IC50 [1, 3]: < 300 nM |
| COCCNCCC(=O)Nc1sc2c(c1-c1nc3cc(F)ccc3s1)CC(C)NC2C (single isomer, unassigned) [Compound 545, N-(3-(5-Fluorobenzo[d]thiazol-2-yl)-5,7-dimethyl-4,5,6,7-tetrahydrothieno[2,3-c]pyridin-2-yl)-3-((2-methoxyethyl)amino)propanamide] | < 300 nM | – | IC50 [1, 3]: < 300 nM |
| CC(=O)Nc1sc2c(c1-c1nc3ccccc3s1)CCN(C(C)C)C2 [Compound 200, N-(3-(benzo[d]thiazol-2-yl)-6-isopropyl-4,5,6,7-tetrahydrothieno[2,3-c]pyridin-2-yl)acetamide] | – | – | IC50 (c-Myc/Max/Ebox DNA; Table 3, compounds of FIG. 2): 300 to 1000 nM; IC50 ([1]; Homo sapiens, NCI-H2171, 72 h): 1000 to 10000 nM |
| CCN1CCc2c(sc(NC(C)=O)c2-c2nc3ccccc3s2)C1 [Compound 201, N-(3-(benzo[d]thiazol-2-yl)-6-ethyl-4,5,6,7-tetrahydrothieno[2,3-c]pyridin-2-yl)acetamide] | – | – | IC50 (c-Myc/Max/Ebox DNA; Table 3, compounds of FIG. 2): 1000 to 10000 nM; IC50 ([1]; Homo sapiens, NCI-H2171, 72 h): 1000 to 10000 nM |
| COCCNCCC(=O)Nc1sc2c(c1-c1nc3ccc(-c4cc[nH]n4)cc3s1)CCNC2 [compound 361] | < 300 nM | < 300 nM | – |
| CC(=O)Nc1sc2c(c1-c1nc3ccccc3s1)CCNC2 [Compound 202, N-(3-(benzo[d]thiazol-2-yl)-4,5,6,7-tetrahydrothieno[2,3-c]pyridin-2-yl)acetamide] | – | – | IC50 (c-Myc/Max/Ebox DNA; Table 3, compounds of FIG. 2): 1000 to 10000 nM; IC50 [1, 4]: < 300 nM |
| CC(=O)Nc1sc2c(c1-c1nc3ccccc3s1)C(C)CNC2 (centres unmarked) [Compound 205, N-(3-(benzo[d]thiazol-2-yl)-4-methyl-4,5,6,7-tetrahydrothieno[2,3-c]pyridin-2-yl)acetamide] | – | – | IC50 (c-Myc/Max/Ebox DNA; Table 3, compounds of FIG. 2): > 10000 nM; IC50 [1, 4]: > 10000 nM |
| CC(C)NCCC(=O)Nc1sc2c(c1-c1nc3ccccc3s1)CCNC2 [Compound 129, N-(3-(benzo[d]thiazol-2-yl)-4,5,6,7-tetrahydrothieno[2,3-c]pyridin-2-yl)-3-(isopropylamino)propanamide] | < 300 nM | < 300 nM | – |
| COCCNCCC(=O)Nc1sc2c(c1-c1nc3ccc(-c4cccnc4)cc3s1)CC(C)NC2C (single isomer, unassigned) [Compound 519, N-(5,7-Dimethyl-3-(6-(pyridin-3-yl)benzo[d]thiazol-2-yl)-4,5,6,7-tetrahydrothieno[2,3-c]pyridin-2-yl)-3-((2-methoxyethyl)amino)propanamide] | < 300 nM | < 300 nM | – |
| COCCNCCC(=O)Nc1sc2c(c1-c1nc3cc(-c4ccn[nH]4)ccc3s1)CCNC2 [compound 406] | < 300 nM | < 300 nM | – |
| CC(C)NCCC(=O)Nc1sc2c(c1-c1nc3cc(N4CCOCC4)ccc3s1)CCNC2 [compound 302] | < 300 nM | < 300 nM | – |
